COc1c(C)c2c(c(O)c1C/C=C(\C)CCC(=O)OCCN1CCOCC1)C(=O)OC2
solubility (mole fraction)
Details	278.15 K	283.15 K	288.15 K	293.15 K	298.15 K	303.15 K	308.15 K	313.15 K	318.15 K
in DMSO	–	–	–	0.0166	0.0214	0.0263	0.0322	0.0389	0.046
in ethanol	0.00352	0.00394	0.00449	0.00511	0.00581	0.00659	0.00749	0.00847	0.0095
in isopropanol	0.00538	0.00592	0.00664	0.00732	0.00821	0.0091	0.00998	0.011	0.0121
in propylene glycol	0.000349	0.000486	0.000633	0.00081	0.001	0.00122	0.00145	0.00172	0.00199
in water	2.62e-07	4.16e-07	6.62e-07	1.05e-06	1.55e-06	2.12e-06	2.84e-06	3.68e-06	4.51e-06

From BigSolDB 2.1
